This note sets out measurements from patent US20240158392A1 (Janssen Biotech, Inc., priority 2021, published 2024).

The assay concerns the target SIK2 (Homo sapiens, UniProt Q9H0K1). Briefly: SIK2 Enzymatic Assay High Version 2 (High ATP). It counts as biochemical. In outline:
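At room temperature, enzyme (6 nM, 2× final) was preincubated with compound for 30 min, then 6 mM ATP and 400 μM HDAC5tide (both 2× final) were added for 2 h. ADP formed was measured by ADP-Glo Max (2 h reagent, 1 h detection) using luminescence.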

Sequence of SIK2 (Q9H0K1 whole entry, species assumed): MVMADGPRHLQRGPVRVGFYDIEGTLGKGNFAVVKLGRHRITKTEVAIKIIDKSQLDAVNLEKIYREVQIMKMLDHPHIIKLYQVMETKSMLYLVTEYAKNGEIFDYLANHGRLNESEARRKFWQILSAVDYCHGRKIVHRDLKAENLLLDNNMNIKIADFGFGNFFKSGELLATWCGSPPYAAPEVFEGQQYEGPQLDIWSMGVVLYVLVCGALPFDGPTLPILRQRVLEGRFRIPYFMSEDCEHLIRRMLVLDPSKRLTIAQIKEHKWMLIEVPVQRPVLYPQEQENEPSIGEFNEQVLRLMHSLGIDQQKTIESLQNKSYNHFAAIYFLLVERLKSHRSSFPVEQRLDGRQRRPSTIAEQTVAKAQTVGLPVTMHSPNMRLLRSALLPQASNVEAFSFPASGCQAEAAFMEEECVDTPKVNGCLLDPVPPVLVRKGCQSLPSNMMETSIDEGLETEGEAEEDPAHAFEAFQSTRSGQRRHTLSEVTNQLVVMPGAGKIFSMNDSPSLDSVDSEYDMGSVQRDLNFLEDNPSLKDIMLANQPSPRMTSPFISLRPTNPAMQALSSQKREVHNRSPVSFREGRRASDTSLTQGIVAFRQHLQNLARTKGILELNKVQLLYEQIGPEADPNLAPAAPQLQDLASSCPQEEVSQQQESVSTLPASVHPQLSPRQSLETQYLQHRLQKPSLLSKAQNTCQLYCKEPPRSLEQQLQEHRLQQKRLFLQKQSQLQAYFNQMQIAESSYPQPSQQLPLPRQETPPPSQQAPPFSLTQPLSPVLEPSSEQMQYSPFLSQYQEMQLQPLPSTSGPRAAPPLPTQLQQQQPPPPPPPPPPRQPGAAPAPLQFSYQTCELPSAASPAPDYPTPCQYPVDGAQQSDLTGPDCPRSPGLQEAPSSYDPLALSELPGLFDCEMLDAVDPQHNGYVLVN

Broadly, the IC50 is the point on the concentration scale where inhibition reaches its midpoint. Lower therefore signals higher potency. The molecule `Cc1cc(-c2ccn3nc(Nc4ccncn4)cc3c2)c(O[C@H]2C[C@H]3COC[C@@H](C2)N3)cn1` [Example 395, 5-[2-methyl-5-[[(1R,5S,7s)-3-oxa-9-azabicyclo[3.3.1]nonan-7-yl]oxy]-4-pyridyl]-N-pyrimidin-4-yl-pyrazolo[1,5-a]pyridin-2-amine] yielded an IC50 of 0.851 nM.

On to `Cc1cc(Nc2cc3cc(-c4cc(C)ncc4O[C@H]4C[C@H]5COC[C@@H](C4)N5)ccn3n2)ncn1` [Example 396, 5-[2-methyl-5-[[(1R,5S,7s)-3-oxa-9-azabicyclo[3.3.1]nonan-7-yl]oxy]-4-pyridyl]-N-(6-methylpyrimidin-4-yl)pyrazolo[1,5-a]pyridin-2-amine], for which the IC50 was found to be 1.1 nM. The molecule `Cc1cc(-c2ccn3nc(Nc4cc(F)n(C)n4)cc3c2)c(O[C@H]2C[C@H]3COC[C@@H](C2)N3)cn1` [Example 397, N-(5-fluoro-1-methyl-pyrazol-3-yl)-5-[2-methyl-5-[[(1S,5R,7s)-3-oxa-9-azabicyclo[3.3.1]nonan-7-yl]oxy]-4-pyridyl]pyrazolo[1,5-a]pyridin-2-amine] registered an IC50 of 1.33 nM. Molecule `Cc1cc(-c2ccn3nc(Nc4cn(C)nc4F)cc3c2)c(O[C@H]2C[C@H]3COC[C@@H](C2)N3)cn1` [Example 398, N-(3-fluoro-1-methyl-pyrazol-4-yl)-5-[2-methyl-5-[[(1S,5R,7s)-3-oxa-9-azabicyclo[3.3.1]nonan-7-yl]oxy]-4-pyridyl]pyrazolo[1,5-a]pyridin-2-amine] registered an IC50 of under 0.847 nM. Molecule `Cc1cc(-c2ccn3nc(Nc4nn(C)cc4F)cc3c2)c(O[C@H]2C[C@H]3COC[C@@H](C2)N3)cn1` [Example 399, N-(4-fluoro-1-methyl-pyrazol-3-yl)-5-[2-methyl-5-[[(1S,5R,7s)-3-oxa-9-azabicyclo[3.3.1]nonan-7-yl]oxy]-4-pyridyl]pyrazolo[1,5-a]pyridin-2-amine] displayed an IC50 of 44.2 nM. The result for `Cc1cc(-c2ccn3nc(NC(=O)C4CC4)c(C)c3c2)c(O[C@H]2C[C@H]3COC[C@@H](C2)N3)cn1` [Example 400, N-[3-methyl-5-[2-methyl-5-[[(1S,5R,7s)-3-oxa-9-azabicyclo[3.3.1]nonan-7-yl]oxy]-4-pyridyl]pyrazolo[1,5-a]pyridin-2-yl]cyclopropanecarboxamide] reads 0.912 nM; that for `Cc1cc(-c2ccn3nc(Nc4ccc(=O)n(C)n4)cc3c2)c(O[C@H]2C[C@H]3COC[C@@H](C2)N3)cn1` [Example 401, 2-methyl-6-[[5-[2-methyl-5-[[(1S,5R,7s)-3-oxa-9-azabicyclo[3.3.1]nonan-7-yl]oxy]-4-pyridyl]pyrazolo[1,5-a]pyridin-2-yl]amino]pyridazin-3-one], 16.1 nM; that for `Cc1cc(-c2ccn3nc(Nc4ncccn4)cc3c2)c(O[C@H]2C[C@H]3COC[C@@H](C2)N3)cn1` [Example 402, 5-[2-methyl-5-[[(1S,5R,7s)-3-oxa-9-azabicyclo[3.3.1]nonan-7-yl]oxy]-4-pyridyl]-N-pyrimidin-2-yl-pyrazolo[1,5-a]pyridin-2-amine], 98.4 nM. In turn, `Cc1cc(-c2ccn3nc(Nc4cc(C(F)(F)F)nn4C)cc3c2)c(O[C@H]2C[C@H]3COC[C@@H](C2)N3)cn1` [Example 403, 5-(5-(((1R,5S,7s)-3-oxa-9-azabicyclo[3.3.1]nonan-7-yl)oxy)-2-methylpyridin-4-yl)-N-(1-methyl-3-(trifluoromethyl)-1H-pyrazol-5-yl)pyrazolo[1,5-a]pyridin-2-amine] displayed an IC50 of 14.3 nM. The molecule `Cc1cc(-c2ccn3nc(Nc4ncc(F)cn4)cc3c2)c(O[C@H]2C[C@H]3COC[C@@H](C2)N3)cn1` [Example 404, N-(5-fluoropyrimidin-2-yl)-5-[2-methyl-5-[[(1S,5R,7s)-3-oxa-9-azabicyclo[3.3.1]nonan-7-yl]oxy]-4-pyridyl]pyrazolo[1,5-a]pyridin-2-amine] gave an IC50 of 58 nM.

Take `Cc1cc(-c2ccn3nc(N)cc3c2)c(O[C@H]2C[C@H]3COC[C@@H](C2)N3)cn1` [Example 405, 5-(5-(((1R,5S,7s)-3-oxa-9-azabicyclo[3.3.1]nonan-7-yl)oxy)-2-methylpyridin-4-yl)pyrazolo[1,5-a]pyridin-2-amine]: the IC50 is under 0.847 nM. The result for `Cc1cc(-c2ccn3nc(Nc4cccc(C(F)(F)F)n4)cc3c2)c(O[C@@H]2C[C@H]3COC[C@@H](C2)N3C)cn1` [Example 406, 5-[2-methyl-5-[[(1S,5R,7s)-9-methyl-3-oxa-9-azabicyclo[3.3.1]nonan-7-yl]oxy]-4-pyridyl]-N-[6-(trifluoromethyl)-2-pyridyl]pyrazolo[1,5-a]pyridin-2-amine] reads 1.83 nM; that for `CNC(=O)c1cccc(Nc2cc3cc(-c4cc(C)ncc4O[C@H]4C[C@H]5COC[C@@H](C4)N5C)ccn3n2)n1` [Example 407, N-methyl-6-[[5-[2-methyl-5-[[(1S,5R,7s)-9-methyl-3-oxa-9-azabicyclo[3.3.1]nonan-7-yl]oxy]-4-pyridyl]pyrazolo[1,5-a]pyridin-2-yl]amino]pyridine-2-carboxamide], 8.49 nM. Then `Cc1cc(-c2ccn3nc(Nc4ccnnc4)cc3c2)c(O[C@H]2C[C@H]3COC[C@@H](C2)N3C)cn1` [Example 408, 5-[2-methyl-5-[[(1S,5R,7s)-9-methyl-3-oxa-9-azabicyclo[3.3.1]nonan-7-yl]oxy]-4-pyridyl]-N-pyridazin-4-yl-pyrazolo[1,5-a]pyridin-2-amine], with 1 nM; and `CNC(=O)c1ccnc(Nc2cc3cc(-c4cc(C)ncc4O[C@H]4C[C@H]5COC[C@@H](C4)N5C)ccn3n2)c1` [Example 409, N-methyl-2-[[5-[2-methyl-5-[[(1S,5R,7s)-9-methyl-3-oxa-9-azabicyclo[3.3.1]nonan-7-yl]oxy]-4-pyridyl]pyrazolo[1,5-a]pyridin-2-yl]amino]pyridine-4-carboxamide], with under 0.847 nM. Then `Cc1cc(-c2ccn3nc(Nc4ccnc(C)n4)cc3c2)c(O[C@H]2C[C@H]3COC[C@@H](C2)N3C)cn1` [Example 410, 5-[2-methyl-5-[[(1R,5S,7s)-9-methyl-3-oxa-9-azabicyclo[3.3.1]nonan-7-yl]oxy]-4-pyridyl]-N-(2-methylpyrimidin-4-yl)pyrazolo[1,5-a]pyridin-2-amine], with under 0.847 nM; and `Cc1cc(-c2ccn3nc(Nc4ccc(C(F)(F)F)cn4)cc3c2)c(O[C@H]2C[C@H]3COC[C@@H](C2)N3C)cn1` [Example 411, 5-[2-methyl-5-[[(1S,5R,7s)-9-methyl-3-oxa-9-azabicyclo[3.3.1]nonan-7-yl]oxy]-4-pyridyl]-N-[5-(trifluoromethyl)-2-pyridyl]pyrazolo[1,5-a]pyridin-2-amine], with 1.52 nM. `Cc1cc(-c2ccn3nc(Nc4cn(C)nc4F)cc3c2)c(O[C@H]2C[C@H]3COC[C@@H](C2)N3C)cn1` [Example 412, N-(3-fluoro-1-methyl-pyrazol-4-yl)-5-[2-methyl-5-[[(1S,5R,7s)-9-methyl-3-oxa-9-azabicyclo[3.3.1]nonan-7-yl]oxy]-4-pyridyl]pyrazolo[1,5-a]pyridin-2-amine]: the IC50 was determined as 0.883 nM. Then `Cc1cc(-c2ccn3nc(Nc4cc(C(F)(F)F)ccn4)cc3c2)c(O[C@H]2C[C@H]3COC[C@@H](C2)N3C)cn1` [Example 413, 5-[2-methyl-5-[[(1R,5S,7s)-9-methyl-3-oxa-9-azabicyclo[3.3.1]nonan-7-yl]oxy]-4-pyridyl]-N-[4-(trifluoromethyl)-2-pyridyl]pyrazolo[1,5-a]pyridin-2-amine], with under 0.847 nM.
